Experimental data reported in patent publication US20070059785A1, “Biomarkers in cancer” (SMITHKLINE BEECHAM CORPORATION, priority 2003, published 2007).

Columns and labels:
Heregulin = assay: Clinical tumor biopsies, heregulin by IHC; settings: patient 425, inflammatory breast cancer, 1200 mg/d ditosylate salt, day 21 (day 0: 5)
Experimental: (§7) Erk1/2 (1:1200), erbB3 (1:10), heregulin (1:25), and TGFα (1:20) were also immunostained using the BenchMark™ with I-VIEW detection chemistry.
“Heregulin”, a ligand that stimulates erbB3 (HER3) and HER4, was measured by immunohistochemistry and reported in OD.

erbB2 [1] = molecular target: T1, erbB2 (Homo sapiens, UniProt P04626); assay: IP Western blot of activated erbB2 (p-Tyr/erbB2) in S1 cells; format: cell-based; set-up: endogenous in cells; settings: 72 h
Experimental: FIG. 1. […] The erbB2 overexpressing human breast adenocarcinoma cell line, BT474, was obtained from the American Type Culture Collection (Rockville, M, USA). […] The EGFR overexpressing LICR-LON-HN5 head and neck carcinoma cell line, HN5, was kindly provided by Helmout Modjtahedi at the Institute of Cancer Research, Surrey, U.K.
(§1) Cell cultures were maintained in a humidified atmosphere of 5% CO2 at 37° C.
(§2) Protein concentrations were determined using a modification of the Bradford method (Bio-Rad Laboratory).
(§3) For IP Western blots, equivalent amounts of protein were precleared with Protein G Plus/Protein A agarose overnight at 4° C. Precleared lysates were then incubated overnight at 4° C. with specific antibodies. Immune complexes were precipitated with Protein G Plus/Protein A agarose beads, washed in RIPA buffer and then boiled in sample loading buffer. Steady state levels of total Erk1/2 and activated Erk1/2 (p-Erk) as well as total AKT protein and activated AKT (p-AKT) protein were assessed by Western blot. […] Proteins were transferred to Immobilon-P or nitrocellulose membranes. Efficiency and equal loading of proteins was evaluated by Ponceau S staining. Membranes were blocked for 1 hr in TBS (25 mM Tris-HCl, pH 7.4, 150 mM NaCl, 2.7 mM KCl) containing 4% (w/v) lowfat milk or 3% BSA (w/v). Membranes were then probed with specific antibodies recognizing target proteins. […]

AKT [2] = settings: S1 cells; not reversed by EGF; data of PCT/US03/12739; cited from earlier work
erbB2 [3] = molecular target: T1, erbB2; assay: Clinical tumor biopsies, total erbB2 by IHC
From the text: (§8) All subjects provided written informed consent.
“erbB2” refers to total erbB2 as measured by immunohistochemistry and reported in OD;

erbB2 [4] = molecular target: T1, erbB2; assay: BT474 tumor xenograft, p-Tyr/ErbB-2 and total ErbB-2 by Western blot; format: in vivo, C.B-17 SCID mice; settings: 100 mg/kg
Experimental: (§4) The tumor implant was removed after the final treatment dose. Activated receptor (p-Tyr/ErbB-2) was assessed by IP Western blot and total ErbB-2 steady state protein (ErbB-2), total Erk1/2 and activated Erk1/2 (p-Erk1/2) were assessed by Western blot loading equal amounts of protein from tumor biopsies.
Cell extracts were prepared by homogenization as described for HN5 xenografts.
as §4, with “BT474” for “The”, “xenografts (subcutaneous) were established as described in Materials and Methods. […] Controls were treated with vehicle alone. […]” for “implant was removed after the final treatment dose.”

AKT [5] = assay: HN5 tumor xenograft, p-AKT and total AKT by Western blot; format: in vivo, CD-1 nude mice
Experimental: (§5) Total Erk1/2, total AKT, activated Erk1/2 (p-Erk1/2), and activated AKT (p-AKT) were assessed by Western blot loading equal amounts of protein from tumor biopsies.
HN5 cells were grown in DMEM supplemented with 10% fetal bovine serum, sodium pyruvate and L-glutamine at 37° C. in a 95/5% air/CO2 atmosphere. […] Cells (2×10^6/mouse) in 0.2 ml were injected into the right flank of CD-1 nude mice. Female CD-1 nude mice were acquired from Charles River Laboratories. Mice were maintained in filter-topped cages in an aseptic environment with laminar flow filtered ventilation. […] Tumors were biopsied pre-treatment and 4 hours after the last dose. All animal surgery was conducted under aseptic conditions. For the initial biopsy, mice were anesthetized with isofluorane inhalation. The skin over the tumor was disinfected with iodine. A small hemostat was used to tease away the skin from the tumor, and scissors were used to make a 1 cm incision over the tumor. A scalpel and forceps were used to remove approximately 100 mg of tumor. The tumor was then frozen in liquid nitrogen. Wound clips were used to close the incision. The anesthetized mice were kept warm until they recovered mobility, usually less than 1-2 minutes. For the terminal biopsy, mice were euthanized with CO2 inhalation, and the remainder of the tumor excised. HN5 tumors were placed on dry ice in vials containing cold isopentane, and stored at −80 C prior to study. BT474 tumor samples were fixed for 2-3 hours in phosphatase inhibitor consisting of sodium fluoride and sodium pervanadate in 10% neutral buffered formalin. Following fixative treatment, BT474 samples were washed in water and stored in 70% ethanol prior to study. Cell extracts were prepared by homogenization in RIPA buffer at 4° C.
as §5

Erk1/2 = assay: Western blot of p-Erk1/2 in BT474 cells; format: cell-based, human; settings: for p-Erk1/2: BT474, exponentially growing, 72 h
Experimental: (§6) The erbB2 overexpressing human breast adenocarcinoma cell line, BT474, was obtained from the American Type Culture Collection (Rockville, M, USA). […] The EGFR overexpressing LICR-LON-HN5 head and neck carcinoma cell line, HN5, was kindly provided by Helmout Modjtahedi at the Institute of Cancer Research, Surrey, U.K.
For IP Western blots, equivalent amounts of protein were precleared with Protein G Plus/Protein A agarose overnight at 4° C. Precleared lysates were then incubated overnight at 4° C. with specific antibodies. Immune complexes were precipitated with Protein G Plus/Protein A agarose beads, washed in RIPA buffer and then boiled in sample loading buffer. Steady state levels of total Erk1/2 and activated Erk1/2 (p-Erk) as well as total AKT protein and activated AKT (p-AKT) protein were assessed by Western blot. […] Proteins were transferred to Immobilon-P or nitrocellulose membranes. Efficiency and equal loading of proteins was evaluated by Ponceau S staining. Membranes were blocked for 1 hr in TBS (25 mM Tris-HCl, pH 7.4, 150 mM NaCl, 2.7 mM KCl) containing 4% (w/v) lowfat milk or 3% BSA (w/v). Membranes were then probed with specific antibodies recognizing target proteins. Proteins were visualized with the SUPERSIGNAL® West Femto Maximum sensitivity substrate kit (Pierce).
BT474 is an erbB2 overexpressing breast carcinoma line that also expresses EGFR, albeit at lower levels. BT474 cells constitutively express activated erbB2 (p-Tyr/erbB2). […] Cell lysates were prepared and total Erk1/2 and activated Erk1/2 (p-Erk1/2) were assessed by Western blot.

HN5 cells = settings: Rusnak et al.; cited from earlier work
erbB2 [6] = molecular target: T1, erbB2; assay: IP Western blot of p-Tyr/erbB2 in BT474 cells, with or without EGF; format: cell-based; set-up: endogenous in cells; settings: BT474, 1 μM, 24 h serum-free; not reversed by EGF
Experimental: as §6, §1, §2, §3

TGFα = assay: Clinical tumor biopsies, TGFα by IHC; settings: patient 425, inflammatory breast cancer, 1200 mg/d ditosylate salt, day 21 (day 0: 32)
From the text: as §7, §8
“TGFα” refers to Transforming Growth Factor alpha as measured by immunohistochemistry and reported in OD;

erbB2 [7] = molecular target: T1, erbB2; assay: Clinical tumor biopsies, erbB2 p-tyr by IHC; settings: patient 361, 1200 mg/day, Day 21, data not shown

T1 sequence (P04626 23-1255): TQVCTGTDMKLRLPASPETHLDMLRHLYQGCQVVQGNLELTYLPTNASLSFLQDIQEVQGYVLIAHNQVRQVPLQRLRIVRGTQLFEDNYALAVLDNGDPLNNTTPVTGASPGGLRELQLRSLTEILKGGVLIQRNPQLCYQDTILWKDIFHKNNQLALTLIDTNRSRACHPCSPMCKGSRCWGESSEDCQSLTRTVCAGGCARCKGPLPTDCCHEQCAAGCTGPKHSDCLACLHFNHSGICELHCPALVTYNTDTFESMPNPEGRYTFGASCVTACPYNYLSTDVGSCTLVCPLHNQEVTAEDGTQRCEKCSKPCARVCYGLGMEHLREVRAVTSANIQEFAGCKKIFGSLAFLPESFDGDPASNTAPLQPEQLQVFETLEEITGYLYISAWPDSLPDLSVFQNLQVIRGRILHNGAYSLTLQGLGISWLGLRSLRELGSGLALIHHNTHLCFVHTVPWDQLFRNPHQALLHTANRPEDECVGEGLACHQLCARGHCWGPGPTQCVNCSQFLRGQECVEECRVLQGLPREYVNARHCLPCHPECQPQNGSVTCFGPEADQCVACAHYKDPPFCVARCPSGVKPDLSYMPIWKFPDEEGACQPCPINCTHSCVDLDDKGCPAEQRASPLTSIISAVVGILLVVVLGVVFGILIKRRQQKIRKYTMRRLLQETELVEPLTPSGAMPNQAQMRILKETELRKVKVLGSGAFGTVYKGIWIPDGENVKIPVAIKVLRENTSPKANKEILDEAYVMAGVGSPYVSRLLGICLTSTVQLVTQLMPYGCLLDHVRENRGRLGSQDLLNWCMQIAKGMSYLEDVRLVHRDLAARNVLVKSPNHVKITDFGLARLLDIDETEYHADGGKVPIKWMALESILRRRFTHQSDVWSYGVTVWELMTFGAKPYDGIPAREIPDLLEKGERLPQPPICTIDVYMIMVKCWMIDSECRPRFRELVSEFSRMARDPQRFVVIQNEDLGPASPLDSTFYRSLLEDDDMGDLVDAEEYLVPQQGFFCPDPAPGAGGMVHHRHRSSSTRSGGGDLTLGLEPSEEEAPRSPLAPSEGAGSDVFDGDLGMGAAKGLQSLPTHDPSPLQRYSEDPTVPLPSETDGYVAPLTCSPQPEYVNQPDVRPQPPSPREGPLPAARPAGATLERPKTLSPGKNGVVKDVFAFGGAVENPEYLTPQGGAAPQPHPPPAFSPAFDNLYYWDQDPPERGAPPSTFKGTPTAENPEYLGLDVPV

For `CS(=O)(=O)CCNCc1ccc(-c2ccc3ncnc(Nc4ccc(OCc5cccc(F)c5)c(Cl)c4)c3c2)o1` [GW572016, N-{3-Chloro-4-[(3-fluorobenzyl)oxy]phenyl}-6-[5-({[2-(methylsulfonyl)ethyl]amino}methyl)-2-furyl]-4-quinazolinamine], the Heregulin (Heregulin) was 8 OD, the “inhibition of erbB2 tyrosine phosphorylation (p-Tyr/erbB2)” value (erbB2 [1]; 500 nM) was “Partial inhibition” and the “inhibition of erbB2 tyrosine phosphorylation (p-Tyr/erbB2)” value (erbB2 [1]; 2.5 μM) was “complete inhibition”. The “baseline phosphorylation of AKT” value (AKT [2]) was “inhibits”, the “total erbB2 protein” value (erbB2 [3]; patient 361, 1200 mg/day) was “no effect” and the ErbB2 (erbB2 [3]; patient 425, inflammatory breast cancer, 1200 mg/d ditosylate salt, day 21 (day 0: 62)) was 68 OD. The “total erbB2 steady state protein levels” value (erbB2 [4]) was “without effects”, the “effect on p-AKT” value (AKT [5]; 10 mg/kg, data not shown) was “little effect” and the p-AKT in tumors (AKT [5]; 30 mg/kg/dose) was “inhibited”. The “total steady state AKT protein levels” value (AKT [5]; 30 mg/kg/dose) was “without affecting”, the “EGF stimulation of p-Erk1/2” value (Erk1/2; BT474, 1 μM, 24 h serum-free, EGF 50 ng/ml) was “inhibited” and the “total Erk1/2 steady state protein levels” value (Erk1/2; BT474, 72 h, GW572016 0.5 or 1 μM, Herceptin 10 μg/ml) was “Neither Herceptin™ nor GW572016 reduced”. The p-Erk1/2 (Erk1/2; 500 nM) was “inhibited”, the p-Erk1/2 (Erk1/2; 1 μM) was “inhibited” and the apoptosis (HN5 cells) was “increased only slightly”. For the same compound, the “baseline levels of p-Tyr/erbB2” value (erbB2 [6]) was “inhibited”, the TGFa (TGFα) was 22 OD and the erbB2 p-tyr (erbB2 [7]) was “had not decreased”.
